Results taken from patent publication US8080552B2, “Pyrimidyl derivatives as protein kinase inhibitors” (Hoffmann-LA Roche Inc., priority 2006, dated 2011).

Assays:
[1] = system: HCT 116 cells; experiment: CellTiter-Glo assay in HCT 116 cells; type: cell-based; conditions: 120 h; HCT 116 human colon carcinoma cells, 5 days incubation, cell viability (ATP luminescence)
Text: CellTiter-Glo™ Assay in HCT 116 Cells:
The CellTiter-Glo™ Luminescent Cell Viability Assay (Promega) is a homogeneous method of determining the number of viable cells in culture based on quantitation of the ATP present, which signals the presence of metabolically active cells.
HCT 116 cells (human colon carcinoma, ATCC-No. CCl-247) were cultivated in RPMI 1640 medium with GlutaMAX™ I (Invitrogen, Cat-No. 61870-010), 5% Fetal Calf Serum (FCS, Sigma Cat-No. F4135 (FBS)); 100 Units/ml penicillin/100 μg/ml streptomycin (=Pen/Strep from Invitrogen Cat. No. 15140). For the assay the cells were seeded in 384 well plates, 1000 cells per well, in the same medium. The next day the test compounds were added in various concentrations ranging from 30 μM to 0.0015 μM (10 concentrations, 1:3 diluted). After 5 days the CellTiter-Glo™ assay was done according to the instructions of the manufacturer (CellTiter-Glo™ Luminescent Cell Viability Assay, from Promega). In brief: the cell-plate was equilibrated to room temperature for approximately 30 minutes and than the CellTiter-Glo™ reagent was added. The contents were carefully mixed for 15 minutes to induce cell lysis. After 45 minutes the luminescent signal was measured in Victor 2, (scanning multiwell spectrophotometer, Wallac).
• Medium: RPMI 1640 with GlutaMAX™ I (Invitrogen, Cat-Nr. 61870), 5% FCS (Sigma Cat.-No. F4135), Pen/Strep (Invitrogen, Cat No. 15140). • HCT116 (ATCC-No. CCl-247): 1000 cells in 60 μl per well of 384 well plate (Greiner 781098, μClear-plate white) • After seeding incubate plates 24 h at 37° C., 5% CO2 2nd. Day: Induction (Treatment with Compounds, 10 Concentrations):
In order to achieve a final concentration of 30 μM as highest concentration 3.5 μl of 10 mM compound stock solution were added directly to 163 μl media. Then step e) of the dilution procedure described below, was followed.

[2] = system: VEGF-induced HUVEC cells; experiment: CellTiter-Glo assay in VEGF-induced HUVEC cells; type: cell-based; conditions: Homo sapiens; Table 2; VEGF-induced (20 ng/ml) HUVEC cells, 72 hours, cell viability (ATP luminescence); read-out: IC50 HCT 116
Method: CellTiter-Glo™ Assay in VEGF-Induced HUVEC Cells:
HUVEC-c (Human Umbilical Vein Endothelial Cells, from Promocell Cat-No. C-12200) cells were trypsinized, spinned down and plated in 384-well plates at 1500 cells per well in 60 μl endothelial basal medium (EBM-2 from Promocell, Cat-No. C-22211) with 0.5% Fetal Calf Serum (FCS, Sigma Cat-No. F4135 (FBS)). Cells were incubated overnight at 37° C., and the next day, test compounds (stock solution 140 μmol/l in medium with 4.2% dimethylsulfoxide (DMSO)) were added in 5 μl medium over a final concentration range of 10 μmol/l to 0.5 nmol/l and 0.3% DMSO. Compounds were tested in triplicates. After 2 hrs 5 μl VEGF (VEGF 165, R&D Systems, Cat-No. 293-VE-010, stock solution 280 ng/ml in medium) was added to a final concentration of 20 ng/ml. Cells were incubated for 72 hours at 37° C. in medium. Cell number was quantitated using CellTiter-Glo™ Luminescent Cell Viability Assay (from Promega) according to the instructions of the supplier. This assay measures the number of viable cells per well by measurement of luminescent signal based on amount of cellular ATP. IC50 are determined using a non-linear curve fit (XLfit software (ID Business Solution Ltd., Guilford, Surrey, UK)) (see also CellTiter-Glo™ assay in HCT 116 cells above).

SMILES: CC1(C)CNc2cc(NC(=O)Nc3ccc(Oc4ccnc(NCCCO)n4)cc3)ccc21 [Example 29, 1-(3,3-Dimethyl-2,3-dihydro-1H-indol-6-yl)-3-{4-[2-(3-hydroxy-propylamino)-pyrimidin-4-yloxy]-phenyl}-urea]
- IC50 [1]: 300 to 10000 nM
- IC50 [2]: 5 to 750 nM
